Test results: patent publication US12161647B2, “Treating hearing loss” (Massachusetts Eye and Ear Infirmary, priority 2012, dated 2024)

Columns and labels:
Hes5 mRNA = experiment: qRT-PCR of Hes5 in deafened mature cochlea after round window administration; type: in vivo, mouse
Procedure: 4-week-old mice were exposed free-field, awake and unrestrained, in a small reverberant chamber (22). Acoustic trauma was produced by a 2 h exposure to an 8-16 kHz octave band noise presented at 116 dB SPL. The exposure stimulus was generated by a custom white-noise source, filtered (Brickwall Filter with a 60 dB/octave slope), amplified (Crown power amplifier), and delivered (JBL compression driver) through an exponential horn fitted securely to a hole in the top of a reverberant box.
4-week-old mice weighing 12 to 16 g were used. Before surgery, the animals were anesthetized with ketamine (20 mg/kg, i.p.) and xylazine (100 mg/kg, i.p.), and an incision was made posterior to the pinna near the external meatus after local administration of lidocaine (1%). […]
The organs of Corti were dissected in HBSS (Invitrogen) and stored in RNAlater (Ambion) at −80° C. until further use. […] Samples were analyzed in 96 wells in triplicate by qPCR (Applied Biosystems 7900HT), and PCR thermal cycling conditions were as follows: initial denaturation at 95° C. for 2 min, denaturation at 95° C. for 15 s, annealing/extension at 60° C. for 1 min for 45 cycles. […] Relative gene expression was analyzed by using the ΔΔCT method. Gene expression was calculated relative to 18S RNA, and the amount of cDNA applied was adjusted so that the Ct value for 18S RNA was between 8 and 11. […]

[1] = system: deafened cochlea of Sox2-CreER; mT/mG mice; experiment: In vivo lineage tracing of Sox2-positive supporting cells after round window administration; set-up: species or system mouse; settings: one month after LY411575 treatment, left ear; none in control ears
Excerpt: For the experiments using inner ear spheres, C57BL/6 (Jackson Labs) or Math1-nGFP reporter mouse (19) (a gift from Jane Johnson, University of Texas) of both sexes were used. To create organ of Corti explants with ablated hair cells, Mos-iCsp3 mice (20) were crossed with Pou4f3-Cre mice (6) (a gift from Douglas Vetter, Tufts University). For all in vivo experiments, we used 4-week-old Cre reporter line, mT/mG (Jackson Labs), crossed to a Sox2-CreER mouse (47) (a gift from Konrad Hochedlinger, Mass General Hospital). After genotyping, double transgenic animals were used for lineage tracing. We used young adult wild-type littermates of the mT/mG; Sox2-CreER mice to prevent strain effects in the response to noise, which are known to vary depending on background (22, 48). Mice were genotyped by PCR. All protocols were approved by the Institutional Animal Care and Use Committee of Massachusetts Eye and Ear Infirmary or the by the ethics committee of Keio University Union on Laboratory Animal Medicine, in compliance with the Public Health Service policy on humane care and use of laboratory animals.
4-week-old mice were exposed free-field, awake and unrestrained, in a small reverberant chamber (22). Acoustic trauma was produced by a 2 h exposure to an 8-16 kHz octave band noise presented at 116 dB SPL. […]

C[C@H](NC(=O)[C@@H](O)c1cc(F)cc(F)c1)C(=O)N[C@@H]1C(=O)N(C)c2ccccc2-c2ccccc21 [LY411575, N-2((2S)-2-(3,5-difluorophenyl)-2-hydroxyethanoyl)-N1-((7S)-5-methyl-6-oxo-6,7-dihydro-5H-dibenzo[b,d]azepin-7-yl)-l-alaninamide]
noise-induced Hes5 mRNA induction (Hes5 mRNA; round window niche, 4 mM 1 μl, 1 d after noise, at 1 d, p<0.01 vs control cochlea): completely blocked
Hes5 expression level (Hes5 mRNA; three days after LY411575 treatment): unchanged from the control cochlea
myosin VIIa-positive cells also expressing GFP (Sox2 lineage) [1]: numerous
